Test results reported in PubChem BioAssay (NCI).
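1) Cells in 96-well plates. 2) Compound, 48 h, 5 concentrations. 3) Linear interpolation between surrounding doses. 4) Unreached endpoint = highest concentration. GI50: concentration for 50% inhibition of growth. TGI marks complete inhibition of growth.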

Legend:
Assay in all cases: DTP human tumour cell line panel, 48 h
[1] = tested on: CCRF-CEM leukemia
[2] = tested on: MCF7 breast
[3] = tested on: MDA-MB-231 breast
[4] = tested on: OVCAR-3 ovarian
[5] = tested on: SF-539 CNS
[6] = tested on: SN12C renal
[7] = tested on: T-47D breast
[8] = tested on: UACC-62 melanoma
[9] = tested on: HOP-92 NSCLC
[10] = tested on: OVCAR-4 ovarian

SMILES: O=C1CC(C(CC(=O)c2ccccc2)c2ccccc2)C(=O)c2ccccc2N1 (stereo not given)
- TGI [1]: > 100 µM
- TGI [2]: 80.1 µM
- TGI [3]: > 100 µM
- TGI [4]: > 100 µM
- TGI [5]: > 100 µM
- TGI [6]: > 100 µM
- TGI [7]: 64.4 µM
- TGI [8]: > 100 µM

SMILES: CC1(C)C2CCC3(OCCO3)C1C(O)C2 (stereo not given)
- TGI [1]: > 100 µM
- TGI [9]: > 100 µM
- TGI [4]: > 100 µM
- TGI [10]: > 100 µM
- TGI [5]: > 100 µM
- TGI [8]: > 100 µM

SMILES: CCOC(=O)c1c(C)nc2c(c1-c1cn(-c3ccccc3)nc1-c1ccccc1)C(=O)c1ccccc1-2
- TGI [1]: > 100 µM
- TGI [9]: > 100 µM
- TGI [3]: > 100 µM
- TGI [4]: > 100 µM
- TGI [10]: > 100 µM
- TGI [6]: > 100 µM
- TGI [7]: > 100 µM
- TGI [8]: > 100 µM

SMILES: CC(=O)OC12c3ccccc3C(c3ccccc31)C1C(=O)N(c3ccccn3)C(=O)C12 (stereo not given)
- TGI [1]: > 100 µM
- TGI [2]: > 100 µM
- TGI [3]: > 100 µM
- TGI [4]: > 100 µM
- TGI [10]: > 100 µM
- TGI [5]: > 100 µM
- TGI [6]: > 100 µM
- TGI [7]: > 100 µM
- TGI [8]: > 100 µM

SMILES: [O-][n+]1c(CN2CCCCC2)nc2cccc3c2c1-c1ccccc1-3
- TGI [9]: 85.6 µM
- TGI [2]: 76.5 µM
- TGI [3]: 95.6 µM
- TGI [4]: 46.5 µM
- TGI [10]: 77.4 µM
- TGI [5]: 88.4 µM
- TGI [6]: 46.1 µM
- TGI [8]: 32.8 µM

SMILES: COC(=O)CC(C(C(=O)OCc1ccccc1)C(C)O)N1C(=O)OC(c2ccccc2)C1c1ccccc1 (stereo not given)
- TGI [1]: > 100 µM
- TGI [4]: > 100 µM
- TGI [10]: > 100 µM
- TGI [5]: > 100 µM
- TGI [6]: > 100 µM
- TGI [8]: > 100 µM

SMILES: CS(=O)(=O)c1nc(-c2cc3c(c(S(C)(=O)=O)n2)CCC3)cc2c1CCCC2
- TGI [1]: > 100 µM
- TGI [3]: > 100 µM
- TGI [4]: > 100 µM
- TGI [10]: > 100 µM
- TGI [5]: > 100 µM
- TGI [6]: > 100 µM
- TGI [8]: 29.6 µM

SMILES: CC(=O)NC(CCCCN)C(=O)NCc1ccccc1 (stereo not given)
- TGI [1]: > 100 µM
- TGI [9]: > 100 µM
- TGI [4]: > 100 µM
- TGI [10]: > 100 µM
- TGI [5]: > 100 µM
- TGI [6]: > 100 µM
- TGI [8]: > 100 µM

SMILES: N#C/C(=C\c1ccc([N+](=O)[O-])s1)c1nc2cc(Cl)ccc2s1
- GI50 [1]: 0.469 µM
- TGI [1]: > 100 µM
- GI50 [9]: 0.287 µM
- TGI [9]: 1.6 µM
- GI50 [3]: 0.297 µM
- TGI [3]: 1.21 µM
- GI50 [4]: 1.42 µM
- TGI [4]: 3.23 µM
- GI50 [5]: 1.21 µM
- TGI [5]: 2.79 µM
- GI50 [6]: 0.296 µM
- TGI [6]: 1.43 µM
- GI50 [7]: 1.88 µM
- TGI [7]: 4.97 µM

SMILES: CCCCCCCCCC(=O)N[C@@H](c1ccco1)[C@@H](O)C(=O)O[C@H]1C[C@@]2(O)[C@@H](OC(=O)c3ccccc3)[C@@H]3[C@]4(OC(C)=O)CO[C@@H]4C[C@H](O)[C@@]3(C)C(=O)[C@H](OC(C)=O)C(=C1C)C2(C)C
- TGI [9]: 21.2 µM
- TGI [2]: 1.81 µM
- TGI [3]: 4.47 µM
- TGI [4]: 3.48 µM
- TGI [10]: > 24.7 µM
- TGI [5]: 0.17 µM
- TGI [6]: 11.4 µM
- TGI [7]: 1.42 µM
- TGI [8]: 9.53 µM

SMILES: CN1N=C(c2ccncc2)OC1c1cccc(C(F)(F)F)c1 (stereo not given)
- TGI [1]: > 100 µM
- TGI [3]: > 100 µM
- TGI [4]: > 100 µM
- TGI [10]: > 100 µM
- TGI [5]: 65.8 µM
- TGI [6]: > 100 µM
- TGI [7]: > 100 µM
- TGI [8]: > 100 µM

SMILES: COc1cccc(/C(Cl)=C(\C=O)c2cccc(OC)c2)c1
- TGI [1]: 28.8 µM
- TGI [9]: 36 µM
- TGI [4]: 29.1 µM
- TGI [10]: 55.3 µM
- TGI [5]: 37.1 µM
- TGI [6]: 34.7 µM
- TGI [8]: 18.8 µM

SMILES: CCOC(=O)C(C)Sc1nnc(COc2ccccc2OC)n1-c1ccccc1 (stereo not given)
- TGI [1]: > 100 µM
- TGI [9]: > 100 µM
- TGI [4]: > 100 µM
- TGI [10]: > 100 µM
- TGI [5]: > 100 µM
- TGI [6]: > 100 µM
- TGI [8]: > 100 µM

SMILES: CN1CN(c2ccccc2)C2(CCN(CCCCCCF)CC2)C1=O
- TGI [1]: > 100 µM
- TGI [2]: 60.6 µM
- TGI [3]: > 100 µM
- TGI [4]: > 100 µM
- TGI [5]: 92.4 µM
- TGI [6]: > 100 µM
- TGI [7]: > 100 µM
- TGI [8]: > 100 µM

SMILES: O=c1c2ccccc2nc(-c2ccccc2)n1NC(=S)Nc1ccc(Cl)cc1
- TGI [1]: > 100 µM
- TGI [9]: > 100 µM
- TGI [10]: > 100 µM
- TGI [5]: > 100 µM
- TGI [6]: > 100 µM
- TGI [8]: > 100 µM

SMILES: Cc1cc(NC(=O)C2C3C=CC(O3)C2C(=O)O)no1 (stereo not given)
- TGI [1]: 38.5 µM
- TGI [9]: > 100 µM
- TGI [4]: > 100 µM
- TGI [10]: > 100 µM
- TGI [5]: 54.9 µM
- TGI [6]: > 100 µM
- TGI [8]: > 100 µM

SMILES: CCOC(=O)NNC(=O)NCc1ccccc1CNC(=O)NNC(=O)OCC
- TGI [1]: > 100 µM
- TGI [2]: > 100 µM
- TGI [3]: > 100 µM
- TGI [4]: > 100 µM
- TGI [10]: > 100 µM
- TGI [5]: > 100 µM
- TGI [6]: > 100 µM
- TGI [7]: > 100 µM
- TGI [8]: > 100 µM

SMILES: COC(=O)[C@@](C)(COC(=O)C(C)(C)C)NC(=O)OC(C)(C)C
- TGI [1]: > 100 µM
- TGI [2]: > 100 µM
- TGI [3]: > 100 µM
- TGI [10]: > 100 µM
- TGI [5]: > 100 µM
- TGI [6]: > 100 µM
- TGI [7]: > 100 µM
- TGI [8]: > 100 µM

SMILES: Cc1cccc2c1c1ccc3c(c1n2C)C(=O)C=CC3=O
- TGI [1]: 3.25 µM
- TGI [9]: 4.34 µM
- TGI [4]: 5.08 µM
- TGI [10]: 24.3 µM
- TGI [5]: 15 µM
- TGI [6]: 12.8 µM
- TGI [8]: 26.5 µM

SMILES: O=c1[nH]c(=O)n(COCCO)c2ccsc12
- TGI [1]: > 100 µM
- TGI [9]: > 100 µM
- TGI [2]: > 100 µM
- TGI [3]: > 100 µM
- TGI [4]: > 100 µM
- TGI [10]: > 100 µM
- TGI [5]: > 100 µM
- TGI [6]: > 100 µM

SMILES: CC1(C)CC2(C)CC1CC2(O)c1ccccc1 (stereo not given)
- TGI [1]: > 100 µM
- TGI [9]: > 100 µM
- TGI [3]: > 100 µM
- TGI [4]: > 100 µM
- TGI [10]: > 100 µM
- TGI [5]: > 100 µM
- TGI [6]: > 100 µM
- TGI [7]: > 100 µM
- TGI [8]: > 100 µM

SMILES: O=C(O)CC[P+](c1ccccc1)(c1ccccc1)c1ccccc1
- TGI [1]: > 100 µM
- TGI [2]: > 100 µM
- TGI [3]: > 100 µM
- TGI [4]: 56.5 µM
- TGI [10]: > 100 µM
- TGI [6]: 54.7 µM
- TGI [7]: > 100 µM
- TGI [8]: > 100 µM

SMILES: Cc1cc(C)nc(/C(=N\NC(N)=O)C(=O)Nc2nc3ccc(C)cc3s2)c1
- TGI [1]: > 77.8 µM
- TGI [9]: > 100 µM
- TGI [4]: > 100 µM
- TGI [10]: > 100 µM
- TGI [5]: > 100 µM
- TGI [6]: > 100 µM
- TGI [8]: > 100 µM

SMILES: COC(=O)CCc1c(Cc2ccc[nH]2)[nH]c(C(=O)OCc2ccccc2)c1C
- TGI [1]: > 100 µM
- TGI [9]: 51.4 µM
- TGI [2]: 35.7 µM
- TGI [3]: 28.9 µM
- TGI [4]: 31 µM
- TGI [10]: 34 µM
- TGI [5]: 37.5 µM
- TGI [6]: 35.6 µM
- TGI [8]: 66.8 µM
